Counter-ions that a name gives are not always drawn.
Tests used:
[1] = biological target: T1, epithelial sodium channel (ENaC) (Canis lupus familiaris, UniProt A0A8I3MKE6+A0A8I3Q679+Q95165); assay: ENaC blocking activity, short circuit current in airway epithelial monolayers in Ussing chambers; type: cell-based; conditions: canine bronchial epithelia; for ENaC blocking potency relative to Amiloride: fold potency versus amiloride; for IC50: lumenal addition, propranolol 10 μM applied first
T1 construct: endogenous in cells; host or cells: primary canine bronchial epithelial cells cultured at air-liquid interface
T1 sequence (A0A8I3Q679 1-649): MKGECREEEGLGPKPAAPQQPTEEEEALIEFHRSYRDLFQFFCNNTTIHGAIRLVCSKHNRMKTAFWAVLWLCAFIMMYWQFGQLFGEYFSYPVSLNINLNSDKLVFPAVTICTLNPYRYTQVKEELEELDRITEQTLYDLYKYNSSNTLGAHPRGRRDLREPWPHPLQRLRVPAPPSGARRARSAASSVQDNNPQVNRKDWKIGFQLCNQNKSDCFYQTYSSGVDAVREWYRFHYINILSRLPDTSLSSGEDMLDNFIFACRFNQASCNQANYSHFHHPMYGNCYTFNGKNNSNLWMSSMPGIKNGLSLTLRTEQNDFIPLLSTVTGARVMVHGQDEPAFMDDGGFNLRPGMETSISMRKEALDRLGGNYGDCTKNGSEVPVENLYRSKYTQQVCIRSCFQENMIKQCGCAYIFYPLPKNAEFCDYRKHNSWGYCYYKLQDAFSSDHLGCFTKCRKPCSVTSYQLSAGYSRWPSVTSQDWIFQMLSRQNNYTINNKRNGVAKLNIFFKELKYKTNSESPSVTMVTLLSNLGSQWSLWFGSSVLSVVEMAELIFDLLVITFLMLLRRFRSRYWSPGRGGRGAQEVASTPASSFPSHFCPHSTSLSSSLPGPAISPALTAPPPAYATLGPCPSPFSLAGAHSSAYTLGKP
T1 sequence (Q95165 1-641): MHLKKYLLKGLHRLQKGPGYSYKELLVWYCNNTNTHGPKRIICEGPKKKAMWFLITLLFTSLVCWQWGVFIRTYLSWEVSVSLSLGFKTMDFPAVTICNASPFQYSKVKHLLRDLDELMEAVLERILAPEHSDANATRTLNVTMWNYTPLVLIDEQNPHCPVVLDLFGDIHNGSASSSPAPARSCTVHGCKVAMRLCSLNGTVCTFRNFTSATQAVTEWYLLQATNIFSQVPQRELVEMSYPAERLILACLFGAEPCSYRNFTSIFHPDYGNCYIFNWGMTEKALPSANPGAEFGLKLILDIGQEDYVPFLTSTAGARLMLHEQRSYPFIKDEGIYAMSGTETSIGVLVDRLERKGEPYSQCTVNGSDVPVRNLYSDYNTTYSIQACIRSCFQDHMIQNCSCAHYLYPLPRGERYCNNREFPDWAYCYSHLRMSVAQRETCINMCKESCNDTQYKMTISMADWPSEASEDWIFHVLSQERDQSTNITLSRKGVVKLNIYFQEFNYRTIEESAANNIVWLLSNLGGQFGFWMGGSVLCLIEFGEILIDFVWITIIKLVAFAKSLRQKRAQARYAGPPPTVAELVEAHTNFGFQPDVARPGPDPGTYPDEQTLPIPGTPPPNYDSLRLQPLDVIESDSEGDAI
T1 sequence (A0A8I3MKE6 1-646): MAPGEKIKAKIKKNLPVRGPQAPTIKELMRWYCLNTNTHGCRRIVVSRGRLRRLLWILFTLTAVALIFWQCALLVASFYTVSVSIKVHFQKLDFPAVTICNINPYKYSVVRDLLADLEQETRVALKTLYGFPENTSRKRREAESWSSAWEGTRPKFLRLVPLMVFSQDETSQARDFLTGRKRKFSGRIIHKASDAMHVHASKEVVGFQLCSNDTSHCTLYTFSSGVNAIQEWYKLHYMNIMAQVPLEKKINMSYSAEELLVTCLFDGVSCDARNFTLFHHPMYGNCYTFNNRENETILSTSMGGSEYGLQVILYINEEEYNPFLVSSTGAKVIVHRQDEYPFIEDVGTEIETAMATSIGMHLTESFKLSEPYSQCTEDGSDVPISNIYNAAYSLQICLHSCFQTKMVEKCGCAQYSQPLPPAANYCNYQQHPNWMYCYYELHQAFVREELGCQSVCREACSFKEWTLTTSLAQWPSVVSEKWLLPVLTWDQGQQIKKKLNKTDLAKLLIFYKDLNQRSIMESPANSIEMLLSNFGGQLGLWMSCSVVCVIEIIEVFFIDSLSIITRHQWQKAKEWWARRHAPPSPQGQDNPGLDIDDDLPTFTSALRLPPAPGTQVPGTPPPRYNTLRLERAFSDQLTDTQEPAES
Protocol: To assess epithelial sodium channel blocker potency the compounds of the present invention involves the determination of lumenal drug inhibition of airway epithelial sodium currents measured under short circuit current (ISC) using airway epithelial monolayers mounted in Ussing chambers. Cells obtained from freshly excised human, or dog airways are seeded onto porous 0.4 micrometer Transwell® Permeable Supports (Corning Inc. Acton, Mass.), cultured at air-liquid interface (ALI) conditions in hormonally defined media, and assayed for sodium transport activity (ISC) while bathed in Krebs Bicarbonate Ringer (KBR) in Ussing chambers. All test drug additions are to the lumenal bath with approximately half-log dose additions (from 1×10^−11 M to 6×10^−5 M), and the cumulative change in ISC (decreases) recorded. All drugs are prepared in dimethyl sulfoxide as stock solutions at a concentration of approximately 1×10^−2 and stored at −20° C. Six preparations are typically run in parallel; one preparation per run incorporates 552-02 as a positive control. Before the start of the concentration-effect relationship propranolol, a non-selective […], was applied to the lumenal bath (10 μM) to inhibit the beta agonist component of the designer multiple ligand (DML). All data from the voltage clamps are collected via a computer face and analyzed off-line.
Concentration-effect relationships for all compounds are considered and analyzed Using GraphPad Prism version 3.00 for Windows, GraphPad Software, San Diego Calif. USA. IC50 values, […], are calculated and compared to the 552-02 potency as a positive control.

beta-adrenergic receptor = biological target: T2, beta-adrenergic receptor (Canis lupus familiaris, UniProt P54833); assay: Beta agonist activity, anion secretion short circuit current in airway epithelial monolayers in Ussing chambers; type: cell-based, canine
T2 construct: endogenous in cells; host or cells: primary canine bronchial epithelial cells cultured at air-liquid interface
T2 sequence (P54833 whole entry): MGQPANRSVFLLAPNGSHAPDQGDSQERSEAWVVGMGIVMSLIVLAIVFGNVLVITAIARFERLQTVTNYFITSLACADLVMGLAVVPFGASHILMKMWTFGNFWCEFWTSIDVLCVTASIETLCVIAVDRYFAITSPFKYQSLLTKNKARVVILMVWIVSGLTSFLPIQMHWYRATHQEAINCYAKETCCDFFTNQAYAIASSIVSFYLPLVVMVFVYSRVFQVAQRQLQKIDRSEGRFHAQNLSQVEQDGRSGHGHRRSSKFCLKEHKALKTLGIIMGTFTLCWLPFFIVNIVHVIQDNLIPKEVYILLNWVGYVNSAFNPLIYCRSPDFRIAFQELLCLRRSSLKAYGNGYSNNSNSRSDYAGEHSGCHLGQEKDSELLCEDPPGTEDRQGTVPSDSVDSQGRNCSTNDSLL
Protocol: To assess beta agonist activity the compounds of the present invention involves the determination of lumenal drug addition to promote airway epithelial anion currents measured under short circuit current (ISC) using airway epithelial monolayers mounted in Ussing chambers. Cells obtained from freshly excised human, dog, or sheep airways are seeded onto porous 0.4 micron Transwell® Permeable Supports (Corning), cultured at air-liquid interface (ALI) conditions in hormonally defined media, and assayed for anion secretion (ISC) while bathed in Krebs Bicarbonate Ringer (KBR) in Ussing chambers. All test drug additions are to the lumenal bath with approximately half-log dose additions (from 8×10^−10 M to 6.5×10^−5 M), and the cumulative change in ISC (excitation) recorded. All drugs are prepared in dimethyl sulfoxide as stock solutions at a concentration from 1×10^−1 to 1×10^−2 M and stored at −20° C. […] Before the start of the concentration-effect relationship 552-02 a potent sodium channel blocker was applied to the apical surface (1 μM) to eliminate changes in Isc caused by sodium absorption. All data from the voltage clamps are collected via a computer interface and analyzed off-line.
Concentration-effect relationships for all compounds are considered and analyzed Using GraphPad Prism version 3.00 for Windows, GraphPad Software, San Diego Calif. USA.

Row | SMILES | melting point | ENaC blocking potency relative to Amiloride [1] | IC50 [1] | EC50 (beta-adrenergic receptor)
1 | N=C(NCCCCc1ccc(OCCNC[C@H](O)c2ccc(O)c(NC=O)c2)cc1)NC(=O)c1nc(Cl)c(N)nc1N [Compound 19, N-(5-{2-[2-(4-{4-[N-(3,5-diamino-6-chloropyrazine-2-carbonyl)guanidine]butyl}phenoxy)ethylamino]-1-(R)-hydroxylethyl}-2-hydroxyphenyl)-formamide] | 120 to 124 °C (dec.) | 120 × Amiloride | 10 nM | 
2 | N=C(NCCCCc1ccc(CCCCN(C[C@H](O)c2ccc(O)c(NC=O)c2)C[C@H](O)c2ccc(O)c(NC=O)c2)cc1)NC(=O)c1nc(Cl)c(N)nc1N (as salt: salt) [Compound 14, N-{4-[4-(4-{bis-[2-(R)-hydroxy-2-(4-hydroxy-3-formylaminophenyl)-ethyl]amino}butyl)phenyl]butyl}-N′-(3,5-diamino-6-chloropyrazine-2-carbonyl)-guanidine diacetic acid salt] | 128 to 130 °C |  |  | 
3 | C[C@H](CCCc1ccc(CCCCNC(=N)NC(=O)c2nc(Cl)c(N)nc2N)cc1)NC[C@H](O)c1ccc(O)c(NC=O)c1 [Compound 30, N-(5-{2-[4-(4-{4-[N′-(3,5-diamino-6-chloropyrazine-2-carbonyl)-guanidino]butyl}phenyl)-1-methylbutylamino]-1-(R)-hydroxyethyl}-2-hydroxyphenyl)formamide] | 120 to 121 °C (dec.) | 93 × Amiloride | 8.4 nM | 71.6 nM
4 | N=C(NCCCCc1ccc(CCCCN(C[C@H](O)c2ccc(O)c(NC=O)c2)C[C@H](O)c2ccc(O)c(NC=O)c2)cc1)NC(=O)c1nc(Cl)c(N)nc1N [Compound 14, N-{4-[4-(4-{bis-[2-(R)-hydroxy-2-(4-hydroxy-3-formylaminophenyl)-ethyl]amino}butyl)phenyl]butyl}-N′-(3,5-diamino-6-chloropyrazine-2-carbonyl)-guanidine diacetic acid salt] |  | 66 × Amiloride | 17.7 nM | 
5 | CS(=O)(=O)Nc1cc([C@@H](O)CNCCCCc2ccc(CCCCNC(=N)NC(=O)c3nc(Cl)c(N)nc3N)cc2)ccc1O [Compound 40, N-(5-{2-[4-(4-{4-[N′-(3,5-diamino-6-chloropyrazine-2-carbonyl)-guanidino]butyl}phenyl)butylamino]-1-(R)-hydroxyethyl}-2-hydroxyphenyl)-methanesulfonamide] | 108 to 110 °C | 91 × Amiloride | 9.2 nM | 1580 nM
6 | CC(CCCc1ccc(CCCCNC(=N)NC(=O)c2nc(Cl)c(N)nc2N)cc1)NC[C@H](O)c1cccc(O)c1 (stereo partly drawn) [Compound 143, 3,5-diamino-6-chloro-N-{N-[4-(4-{4-[(R)-2-hydroxy-2-(3-hydroxyphenyl)ethylamino]pentyl}phenyl)butyl]carbamimidoyl}pyrazine-2-carboxamide] | 82 to 86 °C |  |  | 
7 | C[C@H](CCCc1ccc(CCCCNC(=N)NC(=O)c2nc(Cl)c(N)nc2N)cc1)NC[C@H](O)c1ccc(O)c(NC=O)c1 (as salt: lactate) (hydrate or solvate) [Compound 30, N-(5-{2-[4-(4-{4-[N′-(3,5-diamino-6-chloropyrazine-2-carbonyl)-guanidino]butyl}phenyl)-1-methylbutylamino]-1-(R)-hydroxyethyl}-2-hydroxyphenyl)formamide] | 116 to 119 °C |  |  | 
8 | CC(=O)Nc1cc([C@@H](O)CNC(C)CCCc2ccc(CCCCNC(=N)NC(=O)c3nc(Cl)c(N)nc3N)cc2)ccc1O (stereo in doubt) (as salt: lactate) [Compound 175, N—(N-(4-(4-((S)-4-((R)-2-(3-acetamido-4-hydroxyphenyl)-2-hydroxyethylamino)pentyl)phenyl)butyl)carbamimidoyl)-3,5-diamino-6-chloropyrazine-2-carboxamide di-L-lactate] | 46 to 50 °C (dec.) |  |  | 
9 | N=C(NCCCCc1ccc(CCCCN(C[C@H](O)c2ccc(O)c(CO)c2)C[C@H](O)c2ccc(O)c(CO)c2)cc1)NC(=O)c1nc(Cl)c(N)nc1N [Compound 67, N-{4-[4-(4-{bis-[2-(R)-hydroxy-2-(4-hydroxy-3-hydroxymethylphenyl)-ethyl]amino}butyl)-phenyl]butyl}-N′-(3,5-diamino-6-chloropyrazine-2-carbonyl)-guanidine] |  | 29 × Amiloride | 22.2 nM | 
10 | N=C(NCCCCc1ccc(CCCCNC[C@H](O)c2ccc(O)c(CO)c2)cc1)NC(=O)c1nc(Cl)c(N)nc1N [Compound 63, N-(3,5-diamino-6-chloropyrazine-2-carbonyl)-N′-[4-(4-{4-[2-(R)-hydroxy-2-(4-hydroxy-3-hydroxymethylphenyl)ethylamino]butyl}phenyl)butyl]-guanidine] |  | 154 × Amiloride | 6.5 nM | 
11 | CS(=O)(=O)Nc1cc([C@@H](O)CN(CCCCc2ccc(CCCCNC(=N)NC(=O)c3nc(Cl)c(N)nc3N)cc2)C[C@H](O)c2ccc(O)c(NS(C)(=O)=O)c2)ccc1O [Compound 42, N-[5-(2-{[4-(4-{4-[N′-(3,5-diamino-6-chloropyrazine-2-carbonyl)-guanidino]butyl}phenyl)butyl]-[2-(R)-hydroxy-2-(4-hydroxy-3-methanesulfonyl-aminophenyl)ethyl]amino}-1-(R)-hydroxyethyl)-2-hydroxyphenyl]methane-sulfonamide] | 148 to 150 °C |  | 21.6 nM | 
